Measured values published in US8952042B2, “FXR (NR1H4) binding and activity modulating compounds” (Phenex Pharmaceuticals AG, priority 2009, dated 2015).

Columns and labels:
[1] = Pharmacokinetics in rat after oral administration 5 mg/kg; type: in vivo, Male Sprague Dawley Rat; details: for AUC(0-inf) / Cmax / MRT last / Tmax / half-life / bioavailability / AUC(0-t): male, Sprague Dawley, plasma; for AUC(0-inf) / Cmax / MRT last / Tmax / half-life / AUC(0-t) / AUC Extrapolated / CI / Vd: oral 5 mg/kg; for bioavailability: oral 5 mg/kg vs i.v. 1 mg/kg, read-out: Absolute Bioavailability; for AUC(0-t): read-out: AUC(0-8)
Protocol: (§1) Compounds were applied perorally by gavage at 5 mg/kg each and by i.v. Injection at 1 mg/kg each to male 12 weeks old C57BI/6J or Sprague Dawley rats and plasma concentrations of the test items were determined by LC-MS/MS after time points as indicated. In the case of Cynomolgus monkeys ([…]), the dose was adjusted to 12 mg/kg p.o., no i.v. injection was given (FIG. 1a, 1b and Table 2).
(§2) A solution of 2.5 mg/mL of each test item was produced by diluting them in the vehicle, 0.5% Hydroxypropyl-Methylcellulose (w/v) in 20 mM phosphate buffered saline pH 7.4. The solutions were stirred overnight at room temperature and heated to 40° C. for 10 minutes, resulting in fully homogenous suspension. The application was performed by administrating the solution perorally to the mice, with an application volume of 5 mL/kg. For each time point three mice or rats were used. In case of the Cynomolgus monkeys blood samples were obtained by repeated vein puncture. Blood samples were treated with L1-heparin during collection procedure and stored on ice until centrifugation at 645 g (5 min, 4° C.). Plasma was harvested and kept at −20° C. until being assayed. To 50 μL of plasma sample […] acetonitrile containing an internal standard was added. Samples were vigorously shaken and centrifuged for 10 minutes at 6000 g and 20° C. An aliquot of the particle-free supernatant was transferred to 200 μL sampler vials and subsequently subjected to LC MS/MS for quantification.

[2] = Pharmacokinetics in monkeys after oral administration 12 mg/kg; type: in vivo, Cynomolgus monkeys (Macacca mulatta); details: oral 12 mg/kg, Avg; for AUC(0-inf) / AUC(0-t) / Cmax / Tmax / half-life / MRT last / Vd/F: Cynomolgus, cynomolgus monkey, plasma; for MRT last: read-out: MRT0-t (converted); for Vd/F: read-out: Vz/F
Protocol: as §1, §2

[3] = biological target: T1, FXR ligand binding domain (Homo sapiens, UniProt Q96RI1); test: Mammalian One Hybrid (M1H) Gal4 reporter assay in HEK293 cells; type: cell-based; details: potency range
T1 construct: expressed in transfected cells; host or cells: HEK293 cells (DSMZ), transient transfection of pCMV-BD-FXR-LBD
T1 sequence (Q96RI1 187-472 isoform Q96RI1-2): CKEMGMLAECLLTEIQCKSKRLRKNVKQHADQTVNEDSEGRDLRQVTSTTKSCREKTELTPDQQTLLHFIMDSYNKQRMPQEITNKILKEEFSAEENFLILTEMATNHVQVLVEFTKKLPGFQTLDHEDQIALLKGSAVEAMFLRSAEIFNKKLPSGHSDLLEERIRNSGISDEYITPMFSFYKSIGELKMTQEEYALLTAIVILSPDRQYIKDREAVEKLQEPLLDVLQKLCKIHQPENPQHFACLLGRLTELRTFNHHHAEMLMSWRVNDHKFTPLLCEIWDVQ
Protocol: Determination of a ligand mediated Gal4 promoter driven transactivation to quantify ligand binding mediated activation of FXR was performed as follows: The cDNA part encoding the FXR ligand binding domain was cloned into vector pCMV-BD (Stratagene) as a fusion to the yeast GAL4 DNA binding domain under the control of the CMV promoter. The amino acid boundaries of the ligand binding domain were amino acids 187-472 of Database entry NM_005123 (RefSeq). The plasmid pFR-Luc (Stratagene) was used as the reporter plasmid, containing a synthetic promoter with five tandem repeats of the yeast GAL4 binding sites, driving the expression of the Photinus pyralis (American firefly) luciferase gene as the reporter gene. In order to improve experimental accuracy the plasmid pRL-CMV (Promega) was cotransfected. pRL-CMV contains the constitutive CMV promoter, controlling the expression of the Renilla reniformis luciferase. All Gal4 reporter gene assays were done in HEK293 cells (obtained from DSMZ, Braunschweig, Germany) grown in MEM with L-Glutamine and Earle's BSS supplemented with 10% fetal bovine serum, 0.1 mM nonessential amino acids, 1 mM sodium pyruvate, and 100 units Penicillin/[…] per mL at 37° C. in 5% CO2. Medium and supplements were obtained from Invitrogen. For the assay, […] were plated per well in 96 well plates in 100 μL per well MEM without Phenol Red and L-Glutamine and with Earle's BSS supplemented with 10% charcoal/dextran treated FBS (HyClone, South Logan, Utah), 0.1 mM nonessential amino acids, 2 mM glutamine, 1 mM sodium pyruvate, and 100 units Penicillin/[…] per mL, incubated at 37° C. in 5% CO2. The following day the cells were >90% confluence. Medium was removed and cells were transiently transfected using 20 μL per well of a OptiMEM—polyethylene-imine-based transfection-reagent (OptiMEM, Invitrogen; Polyethyleneimine, Aldrich Cat No. 40, 827-7) including the three plasmids described above. MEM with the same composition as used for plating cells was added 2-4 h after addition of transfection mixture. Then compound stocks, prediluted in MEM were added (final vehicle concentration not exceeding 0.1%). Cells were incubated for additional 16 h before firefly and renilla luciferase activities were measured sequentially in the same cell extract using a Dual-Light-Luciferase-Assay system (Dyer et al., Anal. Biochem. 2000, 282, 158-161). All experiments were done in triplicates.

[4] = Pharmacokinetics in rat after intravenous administration 1 mg/kg; type: in vivo, Male Sprague Dawley Rat; details: for plasma levels as compared to GW4064: Male Sprague Dawley Rat, Table 3; for AUC(0-inf) / MRT last / Tmax / Vd / half-life / concentration at 0.083 hr / concentration at 0.25 hr / concentration at 0.5 hr / concentration at 1 hr / concentration at 2 hr / concentration at 4 hr / Cmax / AUC(0-t): male, Sprague Dawley, plasma; for AUC(0-inf) / MRT last / Tmax / Vd / half-life / concentration at 0.083 hr / concentration at 0.25 hr / concentration at 0.5 hr / concentration at 1 hr / concentration at 2 hr / concentration at 4 hr / AUC(0-t): iv; for AUC(0-inf) / MRT last / Tmax / Vd / half-life / concentration at 0.083 hr / concentration at 0.25 hr / concentration at 0.5 hr / concentration at 1 hr / concentration at 2 hr / concentration at 4 hr / Cmax / AUC(0-t) / AUC Extrapolated / CI: rat; for AUC(0-inf) / MRT last / Tmax / Vd / half-life / concentration at 0.083 hr / concentration at 0.25 hr / concentration at 0.5 hr / concentration at 1 hr / concentration at 2 hr / concentration at 4 hr / Cmax / AUC Extrapolated / CI: 1 mg/kg i.v.; for concentration at 0.5 hr: 0.50 hr; for Cmax: footnote: Co for Intravenous; for AUC(0-t): 1 mg/kg, read-out: #AUC(0-8)
Protocol: as §1, §2

[5] = UV stability, irradiation at 366 nm on a DMSO thin film, LCMS; type: physicochemical; details: 366 nm emission, 250 μM in DMSO thin film, FIG. 3m
Protocol: A different, more rapid experimental setup was used to investigate a broader set of compounds in comparison to GW4064. The substances were dissolved in reagent grade DMSO (99.5%, Karl Roth) at a concentration of 250 μM. DMSO solution was spread over a silica glass slide to a depth of approximately 2 mm and irradiated using a UV lamp set to 366 nm emission (Benda Instruments, Wiesloch Germany) using an 8 W tube set approximately 2.5 cm from the target materials. The solution was sampled prior to irradiation (T=0 min) and at various intervals thereafter. Stocks and samples were maintained in foil wrapped tubes out of direct light. Samples were injected (2 μL) directly onto a LCMS System for analysis without any further preparation.

SMILES	AUC(0-inf) [1]	Cmax [1]	MRT last [1]	Tmax [1]	half-life [1]	bioavailability [1]	AUC(0-t) [1]	AUC Extrapolated [1]	CI [1]	Vd [1]	AUC(0-inf) [2]	AUC(0-t) [2]	Cmax [2]	Tmax [2]	half-life [2]	MRT last [2]	Vd/F [2]	CLz/F [2]	EC50 [3]	plasma levels as compared to GW4064 [4]	further results
O=C(O)c1cccc(C2CC2c2ccc(OCc3c(-c4c(Cl)cccc4Cl)noc3C3CC3)cc2Cl)c1 (racemic) [Example 4, 3-(2-(2-chloro-4-((5-cyclopropyl-3-(2,6-dichlorophenyl)isoxazol-4-yl)methoxy)phenyl)-cyclopropyl)benzoic acid]	406 ng·h/mL	93.1 ng/mL	2.97 h	30 min	245 min	8.8%	287 ng·h/mL	33.93%	205.0343 mL/min/kg	72491.39 mL/kg	30700 ng·h/mL	30500 ng·h/mL	7340 ng/mL	1.42 h	175 min	4.31 h	1.93 L/kg	0.007 L/min/kg	10 to 100 nM	substantially higher	AUC(0-inf) [4]: 923 ng·h/mL; MRT last [4]: 49.8 min; Tmax [4]: 4.98 min; Vd [4]: 1.79 L/kg; half-life [4]: 68.4 min; concentration at 0.083 hr [4]: 1190 ng/mL; concentration at 0.25 hr [4]: 749 ng/mL; concentration at 0.5 hr [4]: 451 ng/mL; concentration at 1 hr [4]: 202 ng/mL; concentration at 2 hr [4]: 78.9 ng/mL; concentration at 4 hr [4]: 44.5 ng/mL; Cmax [4]: 1500 ng/mL; AUC(0-t) [4]: 850 ng·h/mL; AUC Extrapolated [4]: 7.94%; CI [4]: 1083.05 mL/h/kg
O=C(O)c1ccc(C2CC2c2ccc(OCc3c(-c4c(Cl)cccc4Cl)noc3C3CC3)cc2Cl)cc1 (racemic) [Example 12, 4-(2-(2-chloro-4-((5-cyclopropyl-3-(2,6-dichlorophenyl)isoxazol-4-yl)methoxy)phenyl)cyclopropyl)benzoic acid]	681 ng·h/mL	210 ng/mL	2.42 h	30 min	167 min	30.9%	570 ng·h/mL	16.32%	122.39 mL/min/kg	29444.42 mL/kg	15100 ng·h/mL	14500 ng·h/mL	2220 ng/mL	2.92 h	272 min	6.11 h	5.19 L/kg	0.013 L/min/kg	10 to 100 nM	substantially higher	AUC(0-inf) [4]: 440 ng·h/mL; MRT last [4]: 46.8 min; Tmax [4]: 4.98 min; Vd [4]: 4.82 L/kg; half-life [4]: 88.2 min; concentration at 0.083 hr [4]: 661 ng/mL; concentration at 0.25 hr [4]: 359 ng/mL; concentration at 0.5 hr [4]: 174 ng/mL; concentration at 1 hr [4]: 84.6 ng/mL; concentration at 2 hr [4]: 37.7 ng/mL; concentration at 4 hr [4]: 19.2 ng/mL; Cmax [4]: 895 ng/mL; AUC(0-t) [4]: 399 ng·h/mL; AUC Extrapolated [4]: 9.28%; CI [4]: 2272.63 mL/h/kg; photostability compared to GW4064 [5]: higher photostability
